Experimental data taken from publication PMC11952846, “The sterol-regulating human ARV1 binds cholesterol and phospholipids through its conserved ARV1 homology domain” (The Journal of Biological Chemistry, 2025).
Residue numbers refer to the chain shown, from its start. “Also recorded” adds a separate entry of the source. Blank lines part the entries; values can stand above or below the molecule they belong to.

How the values were obtained:
Assay in all cases: HTRF phospholipid lipid-binding assay, mutant
6XHIS-N98 E70A = molecular target: T1, 6XHIS-N98 E70A (Homo sapiens, UniProt Q9H2C2, E70A); parameters: key to Bio-PL, EC50, M ± S.D.: NC, no change; settings: biotinylated lipid, NC = no change vs N98
T1 construct: made in house; host or cells: E. coli BL21
T1 sequence (Q9H2C2 1-98 E70A): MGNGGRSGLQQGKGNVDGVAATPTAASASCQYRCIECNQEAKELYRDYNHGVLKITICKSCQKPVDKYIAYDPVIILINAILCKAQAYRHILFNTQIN
Text: (§1) An HTRF assay was developed for 6XHIS-ARV1-N98-lipid binding. HTRF measures analyte interactions through fluorescence resonance energy transfer technology and time-resolved measurements ([53]). The interaction between two molecules can be quantified through binding each individual molecule involved with a fluorescent label and then analyzing the transfer of energy between the initial donor fluorophore and the secondary acceptor fluorophore. Following excitation of the first fluorophore, transfer of energy can only occur if the molecules bound with the fluorescent tags are within proximity to each other.
(§2) Assays were plated in 384-well flat bottom microplates (Greiner Bio, catalog #784075-25). Proteins were diluted using binding buffer (20 mM Hepes buffer, pH 7.2, containing 0.1% BSA, and 0.01% Tween20) to a stock concentration of 0.75 μM, and biotinylated phospholipids were dispensed, dried under nitrogen gas, and resuspended in binding buffer to a stock concentration of 50 μM. The lipid stock solution was diluted by 1:2 for a series of 12 serial dilutions. For the assay, in sequential order, 6 μl of binding buffer was loaded into the plate in triplicate for each dilution of phospholipid. To this, 2 μl of 0.75 μM 6XHIS-ARV1-N98 was added, followed by 2 μl of biotinylated phospholipid. Immediately following each addition loaded into the plate, the plate was centrifuged for 1 min at 1000 rpm to bring the contents to the bottom of the well. Next, detection antibodies were mixed with detection buffer (20 mM Hepes buffer, pH 8.5, containing 0.01% BSA and 200 mM KF). Antibodies were a MAb anti-6XHIS Europium kryptate-conjugated D1 fluorescent antibody (Cisbio, #61HISKLA) and Streptavidin-conjugated d2 fluorescent antibody (Cisbio, #610SADLA). For each 1000 μl of detection buffer, 5 μl of each antibody was added just prior to loading 10 μl into each well. The plate was again centrifuged for 1 min at 1000 rpm and stored in a sealed container overnight, in the dark. Plates were read on a PerkinElmer EnVision Xcite Multilabel plate reader.
(§3) Curves were logarithmically transformed and normalized to a common scale before being fit with a nonlinear regression of the agonist against the normalized response. This generated half maximal effective concentration values (EC50; M) that could then be compared between different lipids. In the context of our study, EC50 values were defined as a measure of protein sensitivity to binding to a particular lipid within a dose response curve. For phospholipid competition analysis, IC50; M values were determined using nonlinear regression of the inhibitor against normalized response.

6XHIS-N98 C34/37A = molecular target: T2, 6XHIS-N98 C34/37A (Homo sapiens, UniProt Q9H2C2, C34A/C37A); parameters: key: NC, no change; settings: biotinylated lipid; NC = no change vs N98
T2 construct: made in house; host or cells: E. coli BL21
T2 sequence (Q9H2C2 1-98 C34A/C37A): T1 sequence (Q9H2C2 1-98 E70A) with C34A, C37A, A70E
Text: as §1, §2, §3

6XHIS-N98 K54/K59A = molecular target: T3, 6XHIS-N98 K54/K59A (Homo sapiens, UniProt Q9H2C2, K54A/K59A); parameters: key: NC, no change; settings: biotinylated lipid; NC = no change vs N98
T3 construct: made in house; host or cells: E. coli BL21
T3 sequence (Q9H2C2 1-98 K54A/K59A): T1 sequence (Q9H2C2 1-98 E70A) with K54A, K59A, A70E
Text: as §1, §2, §3

6XHIS-N98 N94A = molecular target: T4, 6XHIS-N98 N94A (Homo sapiens, UniProt Q9H2C2, N94A); parameters: key: NC, no change; settings: biotinylated lipid; NC = no change vs N98
T4 construct: made in house; host or cells: E. coli BL21
T4 sequence (Q9H2C2 1-98 N94A): T1 sequence (Q9H2C2 1-98 E70A) with A70E, N94A
Text: as §1, §2, §3

6XHIS-N98 C58/61A = molecular target: T5, 6XHIS-N98 C58/61A (Homo sapiens, UniProt Q9H2C2, C58A/C61A); parameters: key: NC, no change; settings: biotinylated lipid; NC = no change vs N98
T5 construct: made in house; host or cells: E. coli BL21
T5 sequence (Q9H2C2 1-98 C58A/C61A): T1 sequence (Q9H2C2 1-98 E70A) with C58A, C61A, A70E
Text: as §1, §2, §3

6XHIS-N98 N94Q = molecular target: T6, 6XHIS-N98 N94Q (Homo sapiens, UniProt Q9H2C2, N94Q); parameters: key: NC, no change; settings: biotinylated lipid; NC = no change vs N98
T6 construct: made in house; host or cells: E. coli BL21
T6 sequence (Q9H2C2 1-98 N94Q): T1 sequence (Q9H2C2 1-98 E70A) with A70E, N94Q
Text: as §1, §2, §3

6XHIS-N98 D72A = molecular target: T7, 6XHIS-N98 D72A (Homo sapiens, UniProt Q9H2C2, D72A); parameters: key: NC, no change; settings: biotinylated lipid; NC = no change vs N98
T7 construct: made in house; host or cells: E. coli BL21
T7 sequence (Q9H2C2 1-98 D72A): T1 sequence (Q9H2C2 1-98 E70A) with A70E, D72A
Text: as §1, §2, §3

Molecule: CCCCC/C=C\C/C=C\CCCCCCCC(=O)OC[C@H](COP(=O)(O)OCC(O)COP(=O)(O)OC[C@@H](COC(=O)CCCCCCC/C=C\C/C=C\CCCCC)OC(=O)CCCCCCC/C=C\C/C=C\CCCCC)OC(=O)CCCCCCC/C=C\C/C=C\CCCCC (some centres unmarked) [CL, cardiolipin]
Bio-PL, EC50, M ± S.D. (6XHIS-N98 E70A): NC | Bio-PL, EC50, M ± S.D. (6XHIS-N98 C34/37A): NC | Bio-PL, EC50, M ± S.D. (6XHIS-N98 K54/K59A): NC | Bio-PL, EC50, M ± S.D. (6XHIS-N98 N94A): NC | Bio-PL, EC50, M ± S.D. (6XHIS-N98 C58/61A): NC | Bio-PL, EC50, M ± S.D. (6XHIS-N98 N94Q): NC | Bio-PL, EC50, M ± S.D. (6XHIS-N98 D72A): NC

Molecule: CCCCCCCC/C=C\CCCCCCCC(=O)OC[C@H](COP(=O)(O)OCC(O)CO)OC(=O)CCCCCCC/C=C\CCCCCCCC (some centres unmarked) [PG, phosphatidylglycerol]
Bio-PL, EC50, M ± S.D. (6XHIS-N98 E70A): NC | Bio-PL, EC50, M ± S.D. (6XHIS-N98 C34/37A): reduced | Bio-PL, EC50, M ± S.D. (6XHIS-N98 K54/K59A): reduced | Bio-PL, EC50, M ± S.D. (6XHIS-N98 N94A): reduced | Bio-PL, EC50, M ± S.D. (6XHIS-N98 C58/61A): NC | Bio-PL, EC50, M ± S.D. (6XHIS-N98 N94Q): NC | Bio-PL, EC50, M ± S.D. (6XHIS-N98 D72A): NC

Molecule: CCCCCCCCCCCCCCCCCC(=O)OC[C@H](COP(=O)(O)OC[C@H](N)C(=O)O)OC(=O)CCCCCCCCCCCCCCCCC [PS, phosphatidylserine]
Bio-PL, EC50, M ± S.D. (6XHIS-N98 E70A): NC | Bio-PL, EC50, M ± S.D. (6XHIS-N98 C34/37A): NC | Bio-PL, EC50, M ± S.D. (6XHIS-N98 K54/K59A): NC | Bio-PL, EC50, M ± S.D. (6XHIS-N98 N94A): NC | Bio-PL, EC50, M ± S.D. (6XHIS-N98 C58/61A): NC | Bio-PL, EC50, M ± S.D. (6XHIS-N98 N94Q): NC | Bio-PL, EC50, M ± S.D. (6XHIS-N98 D72A): NC

Molecule: CCCCCC(=O)O[C@H](COC(=O)CCCCCNC(=O)CCCC[C@@H]1SC[C@@H]2NC(=O)N[C@@H]21)COP(=O)(O)O[C@H]1[C@H](O)[C@@H](O)[C@H](OP(=O)(O)O)[C@@H](O)[C@H]1O [reference compound]
Bio-PL, EC50, M ± S.D. (6XHIS-N98 E70A): weakened | Bio-PL, EC50, M ± S.D. (6XHIS-N98 N94A): weakened; also recorded: reduction | Bio-PL, EC50, M ± S.D. (6XHIS-N98 C58/61A): weakened | Bio-PL, EC50, M ± S.D. (6XHIS-N98 N94Q): weakened | Bio-PL, EC50, M ± S.D. (6XHIS-N98 D72A): weakened

Next, values leading:

Bio-PL, EC50, M ± S.D. (6XHIS-N98 E70A): reduced binding | Bio-PL, EC50, M ± S.D. (6XHIS-N98 C34/37A): increased | Bio-PL, EC50, M ± S.D. (6XHIS-N98 K54/K59A): reduced binding | Bio-PL, EC50, M ± S.D. (6XHIS-N98 N94A): reduced binding | Bio-PL, EC50, M ± S.D. (6XHIS-N98 C58/61A): reduced binding | Bio-PL, EC50, M ± S.D. (6XHIS-N98 N94Q): reduced binding | Bio-PL, EC50, M ± S.D. (6XHIS-N98 D72A): reduced binding
Molecule: CCCCCCCCCCCCCCCC(=O)OC[C@H](COP(=O)(O)O)OC(=O)CCCCCCCCCCCCCCC [PA, phosphatidic acid]

Bio-PL, EC50, M ± S.D. (6XHIS-N98 E70A): NC | Bio-PL, EC50, M ± S.D. (6XHIS-N98 C34/37A): NC | Bio-PL, EC50, M ± S.D. (6XHIS-N98 K54/K59A): NC | Bio-PL, EC50, M ± S.D. (6XHIS-N98 N94A): NC | Bio-PL, EC50, M ± S.D. (6XHIS-N98 C58/61A): NC | Bio-PL, EC50, M ± S.D. (6XHIS-N98 N94Q): NC | Bio-PL, EC50, M ± S.D. (6XHIS-N98 D72A): NC
Molecule: phosphatidylcholine [PC]

EC50 (6XHIS-N98 E70A; read-out: Bio-PL, EC50, M ± S.D.): 190 nM | Bio-PL, EC50, M ± S.D. (6XHIS-N98 C34/37A): NC | Bio-PL, EC50, M ± S.D. (6XHIS-N98 K54/K59A): NC | Bio-PL, EC50, M ± S.D. (6XHIS-N98 N94A): NC | Bio-PL, EC50, M ± S.D. (6XHIS-N98 C58/61A): NC | Bio-PL, EC50, M ± S.D. (6XHIS-N98 N94Q): NC | Bio-PL, EC50, M ± S.D. (6XHIS-N98 D72A): NC
Molecule: phosphatidylethanolamine [PE]
